Like-named read-outs stand apart in the source and are kept apart here.
Legend:
Assay type in all cases: physicochemical
[1] = Four hour solubility in buffered media (HPLC quantitation); details: for solubility at 4 h: 25 °C, thermodynamic from solid, read-out: Solubility after 4 hours; for Solubility after 4 hours: 25° C.
Protocol: Sufficient sample was suspended in 1.0 ml media for a maximum anticipated concentration of ca. 10 mg/ml of the free form of the compound. The resulting suspensions were then shaken at 25° C./750 rpm for 4 hours. The pH of the sample solutions was checked after 1 hour and adjusted as necessary with 0.2 M NaOH to ensure that the desired pH was maintained throughout (±0.2). After equilibration, the appearance was noted, and the final pH of the saturated solution was measured. Samples were then filtered through a glass C′ fibre filter (Particle retention size 1.2 μm). Samples suspended in pH 1.2 buffer were diluted 10 times with pH 1.2 buffer, all other samples were analysed undiluted. Quantitation was by HPLC with reference to a standard solution of approximately 0.15 mg/ml. Different volumes of the standard, diluted and undiluted sample solutions were injected. The solubility was calculated using the peak areas determined by integration of the peak found at the same retention time as the principal peak in the standard injection. [table] [table]

[2] = Intrinsic dissolution rate (IDR), Sirius inForm; details: pH 2.8, 37° C., 3 mm disc
Excerpt: Data were collected on a Sirius inForm instrument fitted with a dual UV Dip Probe attachment and Ag/AgCl combination pH electrode. The electrode was calibrated using the four plus parameters derived from a blank titration. The base titrant was standardised by titration with TRIS. 0.5 M HCl and NaOH aqueous solutions were used as the acid and base titrants respectively for the testing. Stirring was facilitated by a dual overhead stirrer to allow thorough mixing within the vessel, and media was introduced via a capillary bundle attached to a dispensing bank comprised of six precision dispensing units. A Peltier heating jacket was used to maintain the temperature of the titration vessel. Discs were introduced to the vessel via the tablet picker housed in the probe arm, after the desired temperature of the media had been reached. Sirius inForm Assay Design, Control and Refine software were used to design, run and refine data respectively. The reference sample was prepared as a 10.1 mM stock solution in DMSO. MEC data was then collected using UV metric method with initial addition of 100 μl of DMSO stock. UV Spectra were then collected from low to high pH (pH 2-12) in two titrations using a 5 mm path length. The MEC data set was then imported into the dissolution data files in order to convert the UV absorbance measured to concentration. The concentration range for UV data collected was […]. MEC data were collected in the dissolution media (36 ml of ISA water+4 ml of GI Tract buffer) and at 37° C. to match the dissolution experiments. Ca. 8-20 mg of the sample was compressed in a 3 mm disc recess, under 100 kg for 2 minutes, with greaseproof paper on the compression base, to form non-disintegrating discs. The discs were then plugged with a bung so that only one surface was exposed to the media during analysis and transferred to the Sirius inForm dissolution apparatus. […] The IDR was calculated based on the surface area of the 3 mm disc recess used (7.07 mm^2 surface area). […]

[3] = Storage stability of the crystalline form (XRPD diffractogram and chemical purity); details: 28 days storage at 40° C./75% RH and 25° C./97% RH
Excerpt: Entrectinib anhydrate (Form A) was also characterised as follows: • TGA and DSC analysis (see FIG. 2). • GVS isotherm analysis (see FIG. 3). • XRPD analysis pre- (bottom) and post- (top) GVS (see FIG. […] 5). The XRPD overlays illustrate that entrectinib anhydrate (Form A) is stable under the storage conditions.
Entrectinib anhydrate (Form C) was also characterised as follows: • TGA and DSC analysis (see FIG. 9). • GVS isotherm analysis (see FIG. 10). • XRPD analysis before (bottom) and after (top) the GVS experiment (see FIG. […] 12). The XRPD overlays illustrate that entrectinib anhydrate (Form C) is stable under the storage conditions (see FIG. 12).
Entrectinib monohydrate (Form G) was also characterised as follows: • TGA and DSC analysis (see FIG. 20). • GVS isotherm analysis (see FIG. 21). • XRPD analysis pre- (bottom) and post- (top) GVS (see FIG. […] 23). The XRPD overlays illustrate that entrectinib monohydrate (Form G) is stable under the storage conditions.

[4] = Gravimetric vapour sorption (GVS), XRPD after analysis; details: 25° C., 0-90% RH
Excerpt: Hygroscopicity of a solid material may be determined by means of gravimetric vapour sorption (GVS) analysis, sometimes known by dynamic vapour sorption (DVS) analysis. The experiment subjects a sample material which is held in a fine wire basket on a microbalance within a temperature and humidity controlled environment (chamber). Using the software, the collected data can then be processed to determine the isotherm points at the increment ranges specified during the experiment and show the overall water uptake of the material. Sorption isotherms were obtained using a SMS DVS Intrinsic moisture sorption analyser, controlled by DVS Intrinsic Control software. The sample temperature was maintained at 25° C. by the instrument controls. The humidity was controlled by mixing streams of dry and wet nitrogen, with a total flow rate of 200 ml/min. The relative humidity was measured by a calibrated Rotronic probe (dynamic range of 1.0-100% RH), located near the sample. The weight change, (mass relaxation) of the sample as a function of % RH was constantly monitored by a microbalance (accuracy ±0.005 mg). Typically, 5-30 mg of sample was placed in a tared mesh stainless steel basket under ambient conditions. The sample was loaded and unloaded at 40% RH and 25° C. (typical room conditions). A moisture sorption isotherm was performed as outlined below (2 scans per complete cycle). The standard isotherm was performed at 25° C. at 10% RH intervals over a 0-90% RH range. Typically, a double cycle (4 scans) was carried out. Data analysis was carried out within Microsoft Excel using the DVS Analysis Suite. [table]

[5] = pH 1.2 hydrochloric acid buffer

Row | SMILES | solubility at 4 h ([1]; hydrochloric acid buffer, pH 1.2, simulated gastric fluid, pH 1.2 hydrochloric acid buffer) [µg/mL] | solubility at 4 h ([1]; pH 2.8 buffer, pH 2.8, aqueous buffer, pH 2.8 buffer) [µg/mL] | Solubility after 4 hours ([1]; pH 4.5 acetate buffer) | Solubility after 4 hours ([1]; pH 6.8 phosphate buffer) | Solubility after 4 hours ([1]; pH 7.5 phosphate buffer) | IDR [2] | Stability under the storage conditions (XRPD overlays) [3] | Change in form after GVS (XRPD after analysis) [4] | Solubility after 4 hours [1, 5] | Solubility after 4 hours ([1]; pH 2.8 buffer)
1 | CN1CCN(c2ccc(C(=O)Nc3n[nH]c4ccc(Cc5cc(F)cc(F)c5)cc34)c(NC3CCOCC3)c2)CC1 [Form A, N-[5-[(3,5-difluorophenyl)methyl]-1H-indazol-3-yl]-4-(4-methylpiperazin-1-yl)-2-(oxan-4-ylamino)benzamide] | > 5000 | > 5000 | pH 4.5->5.0 mg/ml | pH 6.8-0.0024 mg/ml | pH 7.5-0.0013 mg/ml | pH 2.8: 2.5 mg/min/cm^2 | stable | unchanged |  | 
2 | CN1CCN(c2ccc(C(=O)Nc3n[nH]c4ccc(Cc5cc(F)cc(F)c5)cc34)c(NC3CCOCC3)c2)CC1 [Form C, N-[5-[(3,5-difluorophenyl)methyl]-1H-indazol-3-yl]-4-(4-methylpiperazin-1-yl)-2-(oxan-4-ylamino)benzamide] |  |  | pH 4.5-4.0 mg/ml | pH 6.8-0.0013 mg/ml | pH 7.5-0.0006 mg/ml | pH 2.8: 2.5 mg/min/cm^2 | stable | unchanged | pH 1.2-4.3 mg/ml | pH 2.8->5.0 mg/ml
3 | CN1CCN(c2ccc(C(=O)Nc3n[nH]c4ccc(Cc5cc(F)cc(F)c5)cc34)c(NC3CCOCC3)c2)CC1 [Form G, N-[5-[(3,5-difluorophenyl)methyl]-1H-indazol-3-yl]-4-(4-methylpiperazin-1-yl)-2-(oxan-4-ylamino)benzamide] |  |  | pH 4.5-0.10 mg/ml | pH 6.8-0.0002 mg/ml | pH 7.5-0.0002 mg/ml | pH 2.8: 1.6 mg/min/cm^2 | stable | substantially unchanged | pH 1.2->5.0 mg/ml | pH 2.8->5.0 mg/ml

Source: patent US20220372024A1, “CRYSTALLINE FORMS OF ENTRECTINIB” (Johnson Matthey Public Limited Company, priority 2019, published 2022)
